Experimental data: US6124380A, “Metal containing e-coat catalysts optionally with tin catalysts” (priority 1999, dated 2000)

How the values were obtained:
Acute Dermal toxicity = type: in vivo
Text: (§1) Generally, the toxicity of tin compounds increases as the organic substituents on the tin atom increase from one to two to three whereas there is a decrease in toxicity with increasing alkyl chain length where the organotin compound is alkyl substituted. However, the extraordinary decrease in toxicity in TOTO due to alkyl chain length is quite unexpected. The relatively low toxicity of TOTO which makes it especially suitable in industrial coating applications is illustrated by the following: […]

Daphnia = experiment: Aquatic Toxicity Daphnia; type: in vivo
Text: as §1

Rats = experiment: Acute Oral toxicity; type: in vivo
Text: as §1

Rabbits [1] = experiment: Primary Eye Irritation; type: in vivo
Text: as §1

Rabbits [2] = experiment: Primary Dermal Irritation; type: in vivo
Text: as §1

[3] = Toxicity of TOTO compared with TBTO; conditions: in vivo
Text: as §1

Flathead Minnow = experiment: Aquatic Toxicity Flathead Minnow; type: in vivo
Text: as §1

Salmonella and E. Coli = experiment: Mutation Assays Ames/Salmonella and E. Coli; type: cell-based
Text: as §1

Row | SMILES | Acute Dermal, comment (Acute Dermal toxicity; No more than Slightly) | Acute Dermal LD50 (Acute Dermal toxicity; in vivo, topical or ocular) | Aquatic Toxicity 48 h LC50 Daphnia (Daphnia; solubility limit) | Acute Oral LD50 (Rats) | Acute Oral, comment (Rats) | Primary Eye Irritation, comment (Rabbits [1]; rabbits) | Primary Eye Irritation (Rabbits [1]; score out of 110.0, rabbits) | Primary Dermal Irritation, comment (Rabbits [2]; rabbits) | Primary Dermal Irritation (Rabbits [2]; score out of 8.0, rabbits) | Toxicity relative to TBTO [3] | Aquatic Toxicity 96 h LC50 Flathead Minnow (Flathead Minnow; solubility limit) | Mutation Assays (Salmonella and E. Coli) | Aquatic Toxicity 48 h LC50 Daphnia (comment, TBTO) (Daphnia) | Aquatic Toxicity 96 h LC50 Flathead Minnow (comment, TBTO) (Flathead Minnow)
1 | CCCCCCC[CH2][Sn]([CH2]CCCCCCC)([CH2]CCCCCCC)[O][Sn]([CH2]CCCCCCC)([CH2]CCCCCCC)[CH2]CCCCCCC [TOTO, Bis(trioctyltin)oxide] | Slightly | > 2000 mg/kg | > 87,000 ug/L | > 5000 mg/kg | Practically Nontoxic | Slightly Irritating | 2.6 | Slightly Irritating | 1.75 | significantly less toxic than TBTO | > 13,500 ug/L | Not Mutagenic |  | 
2 | CCC[CH2][Sn]([CH2]CCC)([CH2]CCC)[O][Sn]([CH2]CCC)([CH2]CCC)[CH2]CCC [TBTO, Bis(tributyltin) oxide] |  |  |  |  |  |  |  |  |  |  |  |  | 0.002 µg/mL | 0.05 µg/mL
